Experimental data: US20250179061A1 (SIRONAX LTD., priority 2022, published 2025)
Where a name gives a salt, the structure may show the parent alone.

The compounds below were run on HT-29 cells (assay: HT-29 necroptosis cell viability assay (TNF-α/SMAC mimetic/zVAD-FMK, CellTiter-Glo)). Settings: HT-29 cells stimulated with TNF-α (10 ng/ml), SMAC mimetic (6 μM) and zVAD-FMK (10 μM); 20 hours; CellTiter-Glo ATP luminescence; geometric mean IC50 from 10 points; read-out: Activity.
Type: cell-based
Procedure, shortened: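 HT-29 cells (~5,000/well, overnight) in FBS-free McCoy's 5A with TNF-α 10 ng/ml, SMAC mimetic 6 μM and zVAD-FMK 10 μM plus 10-point 1:3 compound titration, 20 h at 37°C. ATP measured by CellTiter-Glo luminescence; IC50 as geometric mean of duplicates.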

Question: Which IC50 does the source give for `Cc1nc(N2C[C@@H](N)[C@@H]2C)sc1Oc1ccc(-n2ncn(Cc3c(F)cccc3F)c2=O)cc1` [Example 72, 2-(4-((2-((2S,3R)-3-amino-2-methylazetidin-1-yl)-4-methylthiazol-5-yl)oxy)phenyl)-4-(2,6-difluorobenzyl)-2,4-dihydro-3H-1,2,4-triazol-3-one] here?
Answer: < 100 nM

Same assay, conditions: Homo sapiens; HT-29 cells stimulated with TNF-α (10 ng/ml), SMAC mimetic (6 μM) and zVAD-FMK (10 μM); 20 hours; CellTiter-Glo ATP luminescence; geometric mean IC50 from 10 points; read-out: Activity

Question: Which IC50 does the source give for `Cc1nc(NC23CC(C#N)(C2)C3)sc1Oc1ccc(-n2ncn(Cc3c(F)cccc3F)c2=O)cc1` [Example 45, 3-((5-(4-(4-(2,6-difluorobenzyl)-5-oxo-4,5-dihydro-1H-1,2,4-triazol-1-yl)phenoxy)-4-methylthiazol-2-yl)amino)bicyclo[1.1.1]pentane-1-carbonitrile] here?
Answer: < 100 nM

Question: How did the IC50 turn out when `Cc1nc(N2CC(C)(C#N)C2)sc1Oc1ccc(-n2ncn(Cc3c(F)cccc3F)c2=O)cc1` [Example 46, 1-(5-(4-(4-(2,6-difluorobenzyl)-5-oxo-4,5-dihydro-1H-1,2,4-triazol-1-yl)phenoxy)-4-methylthiazol-2-yl)-3-methylazetidine-3-carbonitrile] was run?
Answer: < 100 nM

Question: With `Cc1nc(N2CC(OC3CC3)C2)sc1Oc1ccc(-n2ncn(Cc3c(F)cccc3F)c2=O)cc1` [Example 47, 2-(4-((2-(3-cyclopropoxyazetidin-1-yl)-4-methylthiazol-5-yl)oxy)phenyl)-4-(2,6-difluorobenzyl)-2,4-dihydro-3H-1,2,4-triazol-3-one] as the compound, how does the IC50 read?
Answer: < 100 nM

Question: For `Cc1nc(N2CC(C#N)C2C)sc1Oc1ccc(-n2ncn(Cc3c(F)cccc3F)c2=O)cc1` (centres unmarked) [Example 48, 1-(5-(4-(4-(2,6-difluorobenzyl)-5-oxo-4,5-dihydro-1H-1,2,4-triazol-1-yl)phenoxy)-4-methylthiazol-2-yl)-2-methylazetidine-3-carbonitrile], which IC50 is on record?
Answer: < 100 nM

Question: Which IC50 does the source give for `Cc1nc(N2CC(OC(F)F)C2)sc1Oc1ccc(-n2ncn(Cc3c(F)cccc3F)c2=O)cc1` [Example 49, 4-(2,6-difluorobenzyl)-2-(4-((2-(3-(difluoromethoxy)azetidin-1-yl)-4-methylthiazol-5-yl)oxy)phenyl)-2,4-dihydro-3H-1,2,4-triazol-3-one] here?
Answer: < 100 nM

Question: With `Cc1nc(N2C[C@@H](O)[C@@H]2C)sc1Oc1ccc(-n2ncn(Cc3c(F)cccc3F)c2=O)cc1` [Example 50, 4-(2,6-difluorobenzyl)-2-(4-((2-((2S,3R)-3-hydroxy-2-methylazetidin-1-yl)-4-methylthiazol-5-yl)oxy)phenyl)-2,4-dihydro-3H-1,2,4-triazol-3-one] as the compound, how does the IC50 read?
Answer: < 100 nM

Question: With `Cc1nc(N2C[C@H](F)[C@@H]2C)sc1Oc1ccc(-n2ncn(Cc3c(F)cccc3F)c2=O)cc1` [Example 51, 4-(2,6-difluorobenzyl)-2-(4-((2-((2S,3S)-3-fluoro-2-methylazetidin-1-yl)-4-methylthiazol-5-yl)oxy)phenyl)-2,4-dihydro-3H-1,2,4-triazol-3-one] as the compound, how does the IC50 read?
Answer: < 100 nM

Question: For `Cc1nc(N2CC([C@H](C)O)C2)sc1Oc1ccc(-n2ncn(Cc3c(F)cccc3F)c2=O)cc1` [Example 52, (S)-4-(2,6-difluorobenzyl)-2-(4-((2-(3-(1-hydroxyethyl)azetidin-1-yl)-4-methylthiazol-5-yl)oxy)phenyl)-2,4-dihydro-3H-1,2,4-triazol-3-one], which IC50 is on record?
Answer: < 100 nM

Question: With `Cc1nc(N2CC(C#N)C2)sc1Oc1ccc(-n2ncn(Cc3c(F)cccc3F)c2=O)cc1` [Example 53, 1-(5-(4-(4-(2,6-difluorobenzyl)-5-oxo-4,5-dihydro-1H-1,2,4-triazol-1-yl)phenoxy)-4-methylthiazol-2-yl)azetidine-3-carbonitrile] as the compound, how does the IC50 read?
Answer: < 100 nM

Question: Which IC50 does the source give for `Cc1nc(N2CCC(C#N)C2)sc1Oc1ccc(-n2ncn(Cc3c(F)cccc3F)c2=O)cc1` (centres unmarked) [Example 54, 1-(5-(4-(4-(2,6-difluorobenzyl)-5-oxo-4,5-dihydro-1H-1,2,4-triazol-1-yl)phenoxy)-4-methylthiazol-2-yl)pyrrolidine-3-carbonitrile] here?
Answer: < 100 nM

Question: With `COC1(C#N)CN(c2nc(C)c(Oc3ccc(-n4ncn(Cc5c(F)cccc5F)c4=O)cc3)s2)C1` [Example 55, 1-(5-(4-(4-(2,6-difluorobenzyl)-5-oxo-4,5-dihydro-1H-1,2,4-triazol-1-yl)phenoxy)-4-methylthiazol-2-yl)-3-methoxyazetidine-3-carbonitrile] as the compound, how does the IC50 read?
Answer: < 100 nM

Question: For `Cc1nc(N2CCOC2=O)sc1Oc1ccc(-n2ncn(Cc3c(F)cccc3F)c2=O)cc1F` [Example 56, 3-(5-(4-(4-(2,6-difluorobenzyl)-5-oxo-4,5-dihydro-1H-1,2,4-triazol-1-yl)-2-fluorophenoxy)-4-methylthiazol-2-yl)oxazolidin-2-one], which IC50 is on record?
Answer: < 100 nM

Question: How did the IC50 turn out when `Cc1nc(N2CC(C)(OC(F)(F)F)C2)sc1Oc1ccc(-n2ncn(Cc3c(F)cccc3F)c2=O)cc1` [Example 57, 4-(2,6-difluorobenzyl)-2-(4-((4-methyl-2-(3-methyl-3-(trifluoromethoxy)azetidin-1-yl)thiazol-5-yl)oxy)phenyl)-2,4-dihydro-3H-1,2,4-triazol-3-one] was run?
Answer: < 100 nM

Question: For `Cc1ncsc1Cc1ccc(-n2ncn(Cc3c(F)cccc3F)c2=O)cc1F` [Example 59, 4-(2,6-difluorobenzyl)-2-(3-fluoro-4-((4-methylthiazol-5-yl)methyl)phenyl)-2,4-dihydro-3H-1,2,4-triazol-3-one], which IC50 is on record?
Answer: < 100 nM

Question: How did the IC50 turn out when `Cc1nc(N2CCC(N)(C(F)(F)F)C2)sc1Cc1ccc(-n2ncn(Cc3c(F)cccc3F)c2=O)cc1F` (centres unmarked) [Example 60, 2-(4-((2-(3-amino-3-(trifluoromethyl)pyrrolidin-1-yl)-4-methylthiazol-5-yl)methyl)-3-fluorophenyl)-4-(2,6-difluorobenzyl)-2,4-dihydro-3H-1,2,4-triazol-3-one formate] was run?
Answer: < 100 nM

Question: How did the IC50 turn out when `Cc1nc(N2C[C@H](C#N)[C@@H]2C)sc1Cc1ccc(-n2ncn(Cc3c(F)cccc3F)c2=O)cc1F` [Example 61, (2S,3S)-1-(5-(4-(4-(2,6-difluorobenzyl)-5-oxo-4,5-dihydro-1H-1,2,4-triazol-1-yl)-2-fluorobenzyl)-4-methylthiazol-2-yl)-2-methylazetidine-3-carbonitrile formate] was run?
Answer: < 100 nM

Question: Which IC50 does the source give for `Cc1nc(N2CC(N)(CF)C2)sc1Cc1ccc(-n2ncn(Cc3c(F)cccc3F)c2=O)cc1F` [Example 62, 2-(4-((2-(3-amino-3-(fluoromethyl)azetidin-1-yl)-4-methylthiazol-5-yl)methyl)-3-fluorophenyl)-4-(2,6-difluorobenzyl)-2,4-dihydro-3H-1,2,4-triazol-3-one trifluoroacetate] here?
Answer: < 100 nM

Question: With `Cc1nc(N2C[C@H](C#N)[C@@H]2C)sc1Cc1ccc(-n2ncn(Cc3c(F)cccc3F)c2=O)cc1` [Example 63, (2S,3S)-1-(5-(4-(4-(2,6-difluorobenzyl)-5-oxo-4,5-dihydro-1H-1,2,4-triazol-1-yl)benzyl)-4-methylthiazol-2-yl)-2-methylazetidine-3-carbonitrile] as the compound, how does the IC50 read?
Answer: < 100 nM

Question: With `Cc1nc(N2C[C@H](O)[C@@H]2C)sc1Cc1ccc(-n2ncn(Cc3c(F)cccc3F)c2=O)cc1` [Example 64, 4-(2,6-difluorobenzyl)-2-(4-((2-((2S,3S)-3-hydroxy-2-methylazetidin-1-yl)-4-methylthiazol-5-yl)methyl)phenyl)-2,4-dihydro-3H-1,2,4-triazol-3-one] as the compound, how does the IC50 read?
Answer: < 100 nM

Question: For `Cc1nn(-c2ccc(Cc3ccccc3)cc2)c(=O)n1Cc1ccccc1` [Example 65, 4-benzyl-2-(4-benzylphenyl)-5-methyl-2,4-dihydro-3H-1,2,4-triazol-3-one], which IC50 is on record?
Answer: < 100 nM

Question: Which IC50 does the source give for `O=c1n(Cc2ccccc2)cnn1-c1ccc(Cc2ccccc2)cc1` [Example 66, 4-benzyl-2-(4-benzylphenyl)-2,4-dihydro-3H-1,2,4-triazol-3-one] here?
Answer: < 100 nM

Question: For `Cc1nn(-c2ccc(N(C)c3ccccc3)cc2)c(=O)n1Cc1ccccc1` [Example 67, 4-benzyl-5-methyl-2-(4-(methyl(phenyl)amino)phenyl)-2,4-dihydro-3H-1,2,4-triazol-3-one], which IC50 is on record?
Answer: 100 to 1000 nM

Question: With `Cc1nc(N2CC(C(C)(C)N)C2)sc1Oc1ccc(-n2ncn(Cc3c(F)cccc3F)c2=O)cc1` [Example 68, 2-(4-((2-(3-(2-aminopropan-2-yl)azetidin-1-yl)-4-methylthiazol-5-yl)oxy)phenyl)-4-(2,6-difluorobenzyl)-2,4-dihydro-3H-1,2,4-triazol-3-one] as the compound, how does the IC50 read?
Answer: < 100 nM

Question: How did the IC50 turn out when `Cc1nc(N2C[C@@H](N)[C@@H]2C)sc1Oc1ccc(-n2ncn(Cc3c(F)cccc3F)c2=O)cc1` [Example 69, 2-(4-((2-((2S,3R)-3-amino-2-methylazetidin-1-yl)-4-methylthiazol-5-yl)oxy)phenyl)-4-(2,6-difluorobenzyl)-2,4-dihydro-3H-1,2,4-triazol-3-one] was run?
Answer: < 100 nM

Question: For `Cc1nc(N2CC[C@@H]2CN)sc1Oc1ccc(-n2ncn(Cc3c(F)cccc3F)c2=O)cc1` [Example 70, (R)-2-(4-((2-(2-(aminomethyl)azetidin-1-yl)-4-methylthiazol-5-yl)oxy)phenyl)-4-(2,6-difluorobenzyl)-2,4-dihydro-3H-1,2,4-triazol-3-one], which IC50 is on record?
Answer: < 100 nM

Question: How did the IC50 turn out when `Cc1nc(N2CC(N)(CO)C2)sc1Oc1ccc(-n2ncn(Cc3c(F)cccc3F)c2=O)cc1` [Example 71, 2-(4-((2-(3-amino-3-(hydroxymethyl)azetidin-1-yl)-4-methylthiazol-5-yl)oxy)phenyl)-4-(2,6-difluorobenzyl)-2,4-dihydro-3H-1,2,4-triazol-3-one] was run?
Answer: < 100 nM

Question: `Cc1nc(N2C[C@H](N)[C@@H]2C)sc1Oc1ccc(-n2ncn(Cc3c(F)cccc3F)c2=O)cc1` [Example 73, 2-(4-((2-((2S,3S)-3-amino-2-methylazetidin-1-yl)-4-methylthiazol-5-yl)oxy)phenyl)-4-(2,6-difluorobenzyl)-2,4-dihydro-3H-1,2,4-triazol-3-one] was tested. Which IC50 did it give?
Answer: < 100 nM

Question: How did the IC50 turn out when `CCOC1CN(c2nc(C)c(Oc3ccc(-n4ncn(Cc5c(F)cccc5F)c4=O)cc3)s2)C1` [Example 74, 4-(2,6-difluorobenzyl)-2-(4-((2-(3-ethoxyazetidin-1-yl)-4-methylthiazol-5-yl)oxy)phenyl)-2,4-dihydro-3H-1,2,4-triazol-3-one] was run?
Answer: < 100 nM
